Data reported in PubChem BioAssay (NCI).
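Test compounds were applied to cells in 96-well plates for 48 hours at 5 doses. TGI: total growth inhibition.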

Experiments:
Assay in all cases: growth of human tumour cells (NCI), 48 h
[1] = system: 786-0 renal
[2] = system: A498 renal
[3] = system: A549 NSCLC
[4] = system: ACHN renal
[5] = system: BT-549 breast
[6] = system: CAKI-1 renal
[7] = system: CCRF-CEM leukemia
[8] = system: COLO 205 colon
[9] = system: DU-145 prostate
[10] = system: EKVX NSCLC
[11] = system: HCC-2998 colon
[12] = system: HCT-116 colon
[13] = system: HCT-15 colon
[14] = system: HL-60(TB) leukemia
[15] = system: HOP-62 NSCLC
[16] = system: HOP-92 NSCLC
[17] = system: HS 578T breast
[18] = system: HT29 colon
[19] = system: IGROV1 ovarian
[20] = system: K-562 leukemia
[21] = system: KM12 colon
[22] = system: LOX IMVI melanoma
[23] = system: M14 melanoma
[24] = system: MALME-3M melanoma
[25] = system: MCF7 breast
[26] = system: MDA-MB-231 breast
[27] = system: MDA-MB-435
[28] = system: MDA-N
[29] = system: MOLT-4 leukemia
[30] = system: NCI-H226 lung
[31] = system: NCI-H23 lung
[32] = system: NCI-H460 lung
[33] = system: NCI-H522 lung
[34] = system: NCI/ADR-RES ovarian
[35] = system: OVCAR-3 ovarian
[36] = system: OVCAR-4 ovarian
[37] = system: OVCAR-5 ovarian
[38] = system: OVCAR-8 ovarian
[39] = system: PC-3 prostate
[40] = system: RPMI-8226 leukemia
[41] = system: RXF 393 renal
[42] = system: SF-268 CNS
[43] = system: SF-295 CNS
[44] = system: SK-MEL-2 melanoma
[45] = system: SK-MEL-28 melanoma
[46] = system: SK-MEL-5 melanoma
[47] = system: SK-OV-3 ovarian
[48] = system: SN12C renal
[49] = system: SNB-19 CNS
[50] = system: SNB-75 CNS
[51] = system: SR leukemia
[52] = system: SW-620 colon
[53] = system: T-47D breast
[54] = system: TK-10 renal
[55] = system: U251 CNS
[56] = system: UACC-257 melanoma
[57] = system: UACC-62 melanoma
[58] = system: UO-31 renal
[59] = system: SF-539 CNS

Cc1c(S(=O)(=O)O)ccc(N=Nc2c(O)c(C(=O)O)cc3ccccc23)c1Cl
TGI [1]: > 100 µM | TGI [2]: > 100 µM | TGI [3]: > 100 µM | TGI [4]: > 100 µM | TGI [5]: > 100 µM | TGI [6]: > 100 µM | TGI [7]: > 100 µM | TGI [8]: > 100 µM | TGI [9]: > 100 µM | TGI [10]: > 100 µM | TGI [11]: > 100 µM | TGI [12]: > 100 µM | TGI [13]: > 100 µM | TGI [14]: > 100 µM | TGI [15]: > 100 µM | TGI [16]: > 100 µM | TGI [17]: > 100 µM | TGI [18]: > 100 µM | TGI [19]: > 100 µM | TGI [20]: > 100 µM | TGI [21]: > 100 µM | TGI [22]: > 100 µM | TGI [23]: > 100 µM | TGI [24]: > 100 µM | TGI [25]: > 100 µM | TGI [26]: > 100 µM | TGI [27]: > 100 µM | TGI [28]: > 100 µM | TGI [29]: > 100 µM | TGI [30]: > 100 µM | TGI [31]: > 100 µM | TGI [32]: > 100 µM | TGI [33]: > 100 µM | TGI [34]: > 100 µM | TGI [35]: > 100 µM | TGI [36]: > 100 µM | TGI [37]: > 100 µM | TGI [38]: > 100 µM | TGI [39]: > 100 µM | TGI [40]: > 100 µM | TGI [41]: > 100 µM | TGI [42]: > 100 µM | TGI [43]: > 100 µM | TGI [44]: > 100 µM | TGI [45]: > 100 µM | TGI [46]: > 100 µM | TGI [47]: > 100 µM | TGI [48]: > 100 µM | TGI [49]: > 100 µM | TGI [50]: > 100 µM | TGI [51]: > 90.2 µM | TGI [52]: > 100 µM | TGI [53]: > 100 µM | TGI [54]: > 100 µM | TGI [55]: > 100 µM | TGI [56]: > 100 µM | TGI [57]: > 100 µM | TGI [58]: > 100 µM

CC(=C/C=C/C=C(C)\C=C\C=C(\C)C(=O)O)/C=C/C=C(/C)C(=O)O
TGI [1]: > 100 µM | TGI [2]: > 100 µM | TGI [3]: > 100 µM | TGI [4]: > 100 µM | TGI [5]: > 100 µM | TGI [6]: > 100 µM | TGI [7]: > 100 µM | TGI [8]: > 100 µM | TGI [9]: > 100 µM | TGI [12]: > 100 µM | TGI [13]: > 100 µM | TGI [14]: > 100 µM | TGI [15]: > 100 µM | TGI [16]: > 100 µM | TGI [17]: > 100 µM | TGI [18]: > 100 µM | TGI [19]: > 100 µM | TGI [20]: > 100 µM | TGI [21]: > 100 µM | TGI [22]: > 100 µM | TGI [23]: > 100 µM | TGI [24]: > 100 µM | TGI [25]: > 100 µM | TGI [26]: > 100 µM | TGI [27]: > 100 µM | TGI [28]: > 100 µM | TGI [29]: > 100 µM | TGI [30]: > 100 µM | TGI [31]: > 100 µM | TGI [32]: > 100 µM | TGI [33]: > 100 µM | TGI [34]: > 100 µM | TGI [35]: > 100 µM | TGI [36]: > 100 µM | TGI [37]: > 100 µM | TGI [38]: > 100 µM | TGI [39]: > 100 µM | TGI [40]: > 100 µM | TGI [41]: > 100 µM | TGI [42]: > 100 µM | TGI [43]: > 100 µM | TGI [59]: > 100 µM | TGI [44]: > 100 µM | TGI [45]: > 100 µM | TGI [46]: > 100 µM | TGI [47]: > 100 µM | TGI [48]: > 100 µM | TGI [50]: > 100 µM | TGI [51]: > 100 µM | TGI [52]: > 100 µM | TGI [53]: > 100 µM | TGI [54]: > 100 µM | TGI [55]: > 100 µM | TGI [56]: > 100 µM | TGI [57]: > 100 µM | TGI [58]: > 100 µM

Cc1occc1C(=S)Nc1ccc(Cl)c(C(=O)OC(C(C)C)C(C)C)c1
TGI [1]: 30.9 µM | TGI [2]: 27.8 µM | TGI [3]: 31.8 µM | TGI [4]: 24.9 µM | TGI [5]: 34.6 µM | TGI [6]: 35.4 µM | TGI [7]: 33 µM | TGI [8]: 34.4 µM | TGI [9]: 32 µM | TGI [10]: 27.3 µM | TGI [11]: 21.9 µM | TGI [12]: 24.5 µM | TGI [13]: 33.7 µM | TGI [14]: 29.8 µM | TGI [15]: 42.3 µM | TGI [16]: 22.6 µM | TGI [17]: 48.5 µM | TGI [18]: 33.5 µM | TGI [19]: 31.5 µM | TGI [21]: 29.9 µM | TGI [22]: 26.3 µM | TGI [23]: 35.3 µM | TGI [24]: 26 µM | TGI [25]: 34 µM | TGI [26]: 27.2 µM | TGI [27]: 65.8 µM | TGI [28]: 29 µM | TGI [29]: 23.1 µM | TGI [30]: 32.2 µM | TGI [31]: 23 µM | TGI [32]: 31.6 µM | TGI [33]: 25.9 µM | TGI [34]: 26.3 µM | TGI [35]: 28.3 µM | TGI [36]: 41.9 µM | TGI [37]: 57.2 µM | TGI [38]: 26.5 µM | TGI [39]: 25.4 µM | TGI [40]: 29.6 µM | TGI [41]: 33.7 µM | TGI [42]: 45.1 µM | TGI [43]: 18.5 µM | TGI [59]: 35 µM | TGI [44]: 38.4 µM | TGI [45]: 29.8 µM | TGI [46]: 32 µM | TGI [47]: 53.2 µM | TGI [48]: 30.9 µM | TGI [49]: 58.4 µM | TGI [51]: 28 µM | TGI [52]: 46.2 µM | TGI [53]: 18.1 µM | TGI [54]: 32.4 µM | TGI [55]: 34.1 µM | TGI [56]: 19.2 µM | TGI [57]: 25.7 µM | TGI [58]: 17.5 µM

CSC1=Nc2ccccc2-c2nc3ccccc3cc2C1
TGI [1]: > 100 µM | TGI [2]: > 100 µM | TGI [3]: > 100 µM | TGI [4]: > 100 µM | TGI [5]: > 100 µM | TGI [6]: > 100 µM | TGI [7]: > 100 µM | TGI [8]: > 100 µM | TGI [9]: > 100 µM | TGI [10]: > 100 µM | TGI [11]: > 100 µM | TGI [12]: > 100 µM | TGI [13]: > 100 µM | TGI [14]: > 100 µM | TGI [15]: > 100 µM | TGI [16]: > 100 µM | TGI [17]: > 100 µM | TGI [18]: > 100 µM | TGI [19]: > 100 µM | TGI [20]: > 100 µM | TGI [21]: > 100 µM | TGI [22]: > 100 µM | TGI [23]: > 100 µM | TGI [24]: > 100 µM | TGI [25]: > 100 µM | TGI [26]: > 100 µM | TGI [27]: > 100 µM | TGI [28]: > 100 µM | TGI [29]: > 100 µM | TGI [30]: > 100 µM | TGI [31]: > 100 µM | TGI [32]: > 100 µM | TGI [33]: > 100 µM | TGI [34]: > 100 µM | TGI [35]: > 100 µM | TGI [36]: > 100 µM | TGI [37]: > 100 µM | TGI [38]: > 100 µM | TGI [39]: > 100 µM | TGI [41]: > 100 µM | TGI [42]: > 100 µM | TGI [43]: > 100 µM | TGI [59]: > 100 µM | TGI [44]: > 100 µM | TGI [45]: > 100 µM | TGI [46]: > 100 µM | TGI [47]: > 100 µM | TGI [48]: > 100 µM | TGI [49]: > 100 µM | TGI [51]: > 100 µM | TGI [53]: > 100 µM | TGI [54]: > 100 µM | TGI [55]: > 100 µM | TGI [56]: > 100 µM | TGI [57]: > 100 µM | TGI [58]: > 100 µM
